Measurements taken from US6211168A, “Methods for preparation and use of 1α,24 (S)-dihydroxy vitamin D2” (Bone Care International, Inc, priority 1995, dated 2001).

How the values were obtained:
[1] = tested on: postmenopausal osteoporotic women; assay: dose ranging study in postmenopausal osteoporotic women; type: in vivo, human; conditions: oral 0.5 to 8.0 μg/day escalating over five weeks
Protocol: Twenty postmenopausal osteoporotic women are enrolled in an open label study.
On admission to the study, all patients receive instruction on selecting a daily diet containing 400 to 600 mg of calcium. Compliance to this diet is verified at weekly intervals by 24-hour food records and by interviews with each patient.
All patients complete a one-week baseline period, a five-week treatment period, and a one-week post-treatment observation period. During the treatment period, patients orally self-administer 1α,24(S)-dihydroxyvitamin D2 at an initial dose of 0.5 μg/day for the first week, and at successively higher doses of 1.0, 2.0, 4.0, and 8.0 μg/day in each of the following four weeks. All doses are administered before breakfast.
Blood and urine chemistries are monitored on a weekly basis throughout the study. Key blood chemistries include fasting serum levels of calcium, phosphorus, osteocalcin, creatinine, and blood urea nitrogen. Key urine chemistries include 24-hour excretion of calcium, phosphorus, and creatinine.

[2] = tested on: postmenopausal osteoporotic out-patients; assay: preventive treatment of bone mass loss in postmenopausal osteoporotic women; type: in vivo, human; conditions: at or above 1.0 μg/day, 24 to 36 months
Protocol: A clinical study is conducted with postmenopausal osteoporotic out-patientshaving ages between 55 and 75 years. The study involves up to 120 patients randomly divided into three treatment groups and continues for 24 to 36 months. Two of the treatment groups receive constant dosages of 1α,24(S)-dihydroxy vitamin D2 (u.i.d.; two different dose levels at or above 1.0 μg/day) and the other group receives a matching placebo. All patients maintain a normal intake of dietary calcium (500 to 800 mg/day) and refrain from using calcium supplements. Efficacy is evaluated by pre-and post-treatment comparisons of the patient groups with regard to (a) total body calcium retention, and (b) radial and spinal bone mineral density as determined by dual-photon absorptiometry (DPA) or dual-energy x-ray absorptiometry (DEXA). Safety is evaluated by comparisons of urinary hydroxyproline excretion, serum and urine calcium levels, creatinine clearance, blood urea nitrogen, and other routine determinations.

[3] = tested on: healthy postmenopausal women; assay: prophylaxis of postmenopausal bone loss; type: in vivo, human; conditions: at or above 1.0 μg/day
Protocol: A clinical study is conducted with healthy postmenopausal women having ages between 55 and 60 years. The study involves up to 80 patients randomly divided into two treatment groups, and continues for 24 to 36 months. One treatment group receives a constant dosage of 1α,24(S)-dihydroxy vitamin D2 (u.i.d.; a dose level at or above 1.0 μg/day) and the other receives a matching placebo. The study is conducted as indicated in Example 2 above.

[4] = tested on: men and women with renal disease undergoing chronic hemodialysis; assay: hypocalcemia and metabolic bone disease in chronic hemodialysis patients; type: in vivo, human; conditions: greater than 3.0 μg/day, twelve months
Protocol: A twelve-month, double-blind, placebo-controlled clinical trial is conducted with thirty men and women with renal disease who are undergoing chronic hemodialysis. […] Efficacy is evaluated by pre- and post-treatment comparisons of the two patient groups with regard to (a) direct measurements of intestinal calcium absorption, (b) total body calcium retention, (c) radial and spinal bone mineral density, or (d) determinations of serum calcium. Safety is evaluated by regular monitoring of serum calcium.

[5] = tested on: dermatitis (contact and ectopic) patients; assay: dermatological testing, topical treatment of dermatitis; type: in vivo, human; conditions: ointment 10 μg per gram, twice daily, four to six weeks
Protocol: Compositions containing 1α,24(S)-dihydroxy vitamin D2 are evaluated for therapeutic efficacy of the composition in the topical treatment of dermatitis (contact and ectopic). The composition evaluated is an ointment containing 10 μg of 1α,24-dihydroxy vitamin D2 per gram of ointment in a petrolatum-almond oil base. […] The patients are treated in an out-patient clinic. They are instructed to use the preparation two times a day.
The ointment is as far as possible applied to a single lesion, or to an area of the disease. The ointment and its container are weighed before the treatment starts and returned with any unused contents for reweighing at the end of the treatment.
The area of the lesion treated is estimated and recorded, and the lesion is photographed as required, together with suitable "control" lesions. The latter are preferably lesions of similar size and stage of development, either in the vicinity of the treated lesion or symmetrically contralateral. Relevant details of the photographic procedure are recorded so as to be reproduced when the lesions are next photographed (distance, aperture, angle, background, etc.). The ointment is applied twice daily and preferably left uncovered. The "control" lesions are left untreated, but if this is not possible, the treatment used on them is noted. […]

Human keratinocytes = assay: epidermal cell differentiation and proliferation testing; type: cell-based; conditions: 0.05 to 5 μg/ml, versus ethanol control cultures
Protocol: Human keratinocytes are cultured according to known modifications of the system originally described by Rheinwald and Green (Cell, vol. 6, p. 331 (1975)). The 1α,24(S)-dihydroxy vitamin D2, dissolved in ethanol, is added to cells to yield a variety of concentrations between 0.05 and 5 μg/ml with the ethanol concentration not to exceed 0.5% v/v. Control cultures are supplemented with ethanol at a final concentration of 0.5% v/v.
Differentiation and proliferation of epidermal cells in culture is examined by:
1. quantitation of cornified envelopes;
2. quantitation of cell density of cells attached to disks;
3. monitoring transglutaminase activity; or
4. monitoring DNA synthesis by incorporation of ^3 H-thymidine.

HL-60 promyelocytes = assay: HL-60 cell differentiation assay; type: cell-based; conditions: dose-response; acid esterase, NBT reduction, thymidine incorporation
Protocol: A dose-response study is conducted with 1α,24(S)-(OH)2 D2 in the HL-60 cell differentiation assay as described by DeLuca and Ostrom (DeLuca, H. F. and Ostrem, V. K., Prog. Clin. Biol. Res., vol. 259, pp. 41-55 (1988)). In this study, 1α,25-(OH)2 D3 is used as a positive control and appropriate solvents are used as negative controls. The following variables are evaluated: nonspecific acid esterase activity, nitroblue tetrazolium (NBT) reduction, and thymidine incorporation.

[6] = tested on: human cancer cell lines BCA-1 or ZR-75-1 (breast) and COL-1 (colon); assay: antiproliferative activity in human cancer cell lines (thymidine incorporation); type: cell-based; conditions: dose-response
Protocol: Dose-response studies are conducted with 1α,24(S)-(OH)2 D2 in a battery of human cancer cell lines. These cell lines include, but are not limited to, the following: BCA-1 or ZR-75-1 (breast) and COL-1 (colon), as described by Shieh, H. L. et al. Chem. Biol. Interact., vol. 81, pp. 35-55 (1982). In this study, appropriate solvents are used as negative controls.

SMILES: C=C1/C(=C\C=C2/CCC[C@]3(C)[C@@H]([C@H](C)/C=C/[C@@](C)(O)C(C)C)CC[C@@H]23)C[C@@H](O)C[C@@H]1O [1α,24(S)-(OH)2 D2, 1α,24(S)-dihydroxy vitamin D2]
- 24-hour urinary calcium levels [1]: modest increases in 24-hour urinary calcium levels
- routinely monitored serum parameters [1]: no effect on any routinely monitored serum parameters
- serum osteocalcin levels [1]: increases in serum osteocalcin levels
- urinary excretion of hydroxyproline [1]: nor does it increase urinary excretion of hydroxyproline
- incidence of hypercalcemia, hypercalciuria or other metabolic disturbance [2]: insignificant incidence of hypercalcemia or hypercalciuria, or any other metabolic disturbance
- total body calcium, radial and spinal bone densities relative to placebo [2]: significantly higher total body calcium, and radial and spinal bone densities relative to patients treated with placebo
- losses in total body calcium, radial or spinal bone densities relative to baseline ([3]; 24 to 36 months): reduced losses in total body calcium, radial or spinal bone densities relative to baseline values
- monitored safety parameters ([3]; long-term administration): confirm the safety of long-term 1α,24(S)-dihydroxy vitamin D2 administration
- radial and spinal bone densities relative to baseline [4]: stable radial and spinal bone densities
- total body calcium relative to baseline [4]: stable values for total body calcium
- intestinal calcium absorption ([4]; double-isotope technique): significantly increases intestinal calcium absorption
- lesion severity score (erythema, scaling, thickness; 0 to 3) [5]: lower scores than the control lesions
- DNA synthesis by incorporation of 3H-thymidine (Human keratinocytes): lower DNA synthesis
- cell density of cells attached to disks (Human keratinocytes): fewer attached cells
- cornified envelopes (Human keratinocytes): more cornified envelopes
- transglutaminase activity (Human keratinocytes): higher transglutaminase activity
- differentiation of HL-60 promyelocytes to monocytes (HL-60 promyelocytes): potent activity in promoting differentiation of HL-60 promyelocytes to monocytes
- antiproliferative activity, inhibition of thymidine incorporation [6]: potent (and reversible) antiproliferative activity
